Experiments:
[1] = system: MOLT-4 xenograft tumors; test: MOLT-4 mouse xenograft; assay type: in vivo; conditions: MOLT-4, oral twice daily 50 and 100 mg/kg, 12 days
Experimental: FIGS. 12A-12D depict the activity of COH29 in mouse xenografts. Cancer cells were implanted and allowed to grow at the subcutaneous site until the tumor was measurable. Subcutaneous xenograft growth curves for leukemic-(MOLT-4) mice treated for 12 days with oral COH29 in twice-daily dosing at 50 and 100 mg/kg (FIG. 12A) and for ovarian cancer bearing mice (TOV112D) treated for 7 days with 200, 300, or 400 mg/kg of oral COH29 (FIG. 12B) (shown are the average±SDs for 4 animals/group). FIG. 12C depicts the activity of RNR in MOLT-4 tumor xenografts from mice treated with vehicle (solutol-15) or 100 mg/kg of oral COH29 for 12 days. FIG. 12D depicts the effect of oral COH29 on intratumoral dTNP pools from MOLT-4 tumor xenografts.

[2] = system: HCC1937; test: Microarray gene ontology enrichment, HCC1937; assay type: cell-based, human; conditions: genes downregulated, HCC1937-COH29 vs HCC1937
Experimental: (§1) FDR values were calculated using the method of Benjamini and Hochberg (28) from the distribution of ANOVA with Linear Contrastp-values. Gene ontology (GO) (29) enrichment analysis was performed within PARTEK® GENOMICS SUITE™, and GO categories were defined significant with a Fisher Exact test p-value<0.05.
(§2) To identify the mechanism through which COH29 preferentially lyses BRCA1-mutant human cancer cells, genome-wide microarray analysis was performed using the AFFYMETRIX® GENECHIP® microarray platform to identify the gene expression profiles and pathways affected by COH29 treatment. The RNA expression profile of COH29 treated HCC1937 breast cancer cells lacking BRCA1 was compared with that of COH29 treated HCC1937+BRCA1 cells. […] For example, DNA ligation involved in DNA repair is more strongly enriched in HCC1937 cells which may relate to the phenotypic effect.

[3] = system: HCC1937+BRCA1; test: Microarray gene ontology enrichment, HCC1937+BRCA1; assay type: cell-based, human; conditions: genes downregulated, HCC1937 + BRCA1-COH29 vs HCC1937 + BRCA1
Experimental: as §1, §2

[4] = system: MCF7 cells containing wild-type p53; test: DNA damage checkpoint Western blot, MCF-7; assay type: cell-based, human
Experimental: FIG. 6. COH29 treatment activates DNA damage checkpoint. The effect of COH29 treatment on DNA damage checkpoint proteins in human breast cancer cells expressing wt p53 (MCF-7) or defective for p53 (MCF-7p53−/−), and in triple-negative breast cancer cells (MDA-MB-468) assessed by Western Blot.
(§3) For subcellular fractionation, cells were trypsinized and washed with cold PBS solution twice. After centrifugation at 1,200 g for 5 min, cells were incubated in buffer (50 mM HEPES, pH 7.5, 150 mM NaCl, 1 mM EDTA) containing 0.2% NONIDET™ P-40 (NP-40), supplemented with protease inhibitors (5 μg/ml each of pepstatin, leupeptin, and aprotinin) and phosphatase inhibitors on ice for 5 min. Following centrifugation at 1,000 g for 5 min, the supernatant was collected (i.e., cytoplasmic fraction) and pellets were washed with the same buffer twice. The washed samples were extracted for 40 min on ice with fractionation buffer containing 0.5% NP-40 for nuclear fraction. All the samples were sonicated and clarified by centrifugation at 16,000 g for 15 min. Protein concentrations of all fractions were determined with Bio-Rad Protein Assay (Bio-Rad Laboratories, Hercules, Calif.). Immunoblotting was performed as described previously (21,22). […] The immunoblots were visualized on film with the West-Q chemi-luminescence kit (GenDEPOT, Barker, Tex.).

[5] = system: A549 cells; test: DDR proteins in A549 cells (Western blot, immunofluorescence); assay type: cell-based, human
Experimental: Immunofluorescence experiments were conducted as described previously (21,22). Specifically, A549 cells were grown on glass coverslips. After treatment with COH29 (1 or 10 μM) for 24 or 48 hours, cells were fixed with 4% paraformaldehyde for 10 min and permeabilized with TRITON™ X-100 (0.5%). The coverslips were washed with phosphate-buffered saline (PBS) and blocked with PBS-containing 2% bovine serum albumin (BSA), incubated with an Ab specific to FOXO3 or ATM-pS1981 or γ-H2AX or p53-pS15 (1:50-1:200 dilution), followed by Alexa 488-conjugated anti-rabbit or anti-mouse (1:200), Alexa 594-conjugated anti-goat (1:100) secondary Abs (Molecular Probes). Cells were incubated with 4′,6-diamidino-2-phenylindole (DAPI; Sigma) to stain the nuclei. Specific staining was visualized and images were captured with a Leica SP2 AOBS confocal laser scanning microscope. To measure foci-positive cells, ˜300 cells were used randomly captured by confocal microscopy. The percentages of considering foci-positive cells were calculated from cells containing at least five foci. Each error bar presented is the mean of standard deviation.
as §3, with “All the samples were sonicated and clarified by centrifugation at 16,000 g for 15 min.” left out, “Calif.).” for “Calif.). Immunoblotting was performed as described previously (21,22).”

[6] = system: EJ5 cells (NHEJ pathway); test: NHEJ repair GFP reporter (EJ5-GFP); assay type: cell-based; conditions: 24 h
Experimental: The EJ2 cells were generated to evaluate Alt-NHEJ through monitoring the fluorescence intensity of GFP, and EJ5 cells were used to determine NJEJ, as described previously (23). Cells were seeded into 6-well plate and treated with COH29 or cisplatin at different concentration for 24 hours. The cells were then trypsinized, washed, and analyzed by flow cytometry.

[7] = system: tumor xenografts; test: Pilot tumor xenograft study; assay type: in vivo; conditions: daily oral administration, IL2-rg(KO)/NOD-Scid mice
Description: Toxicity studies in rats and dogs at doses equivalent to 10× that dose have not shown toxicity at 10 or 21 days.

## O=C(Nc1nc(-c2ccc(O)c(O)c2)c(-c2ccccc2)s1)c1ccc(O)c(O)c1 [COH29, N-(4-(3,4-dihydroxyphenyl)-5-phenylthiazol-2-yl)-3,4-dihydroxybenzamide]
[1]
  xenograft tumor growth: inhibited
[2]
  Genes (n): DNA ligation involved in DNA repair: 3
  Genes (n): DNA repair: 17
  Genes (n): DSB repair: 7
  Genes (n): DSB repair via HR: 5
  Genes (n): DSB repair via NHEJ: 2
[3]
  Genes (n): DNA ligation involved in DNA repair: 3
  Genes (n): DNA repair: 44
  Genes (n): DSB repair: 14
  Genes (n): DSB repair via HR: 9
  Genes (n): DSB repair via NHEJ: 3
[4]
  DNA damage checkpoint (phosphorylation of ATM, CHK1, CHK2): activated the DNA damage checkpoint
  γ-H2AX level: increase
[5]; A549, 24 h
  protein level of BRCA1 and Rad51 foci formation: suppressed
[5]; A549, BRCA1 wild-type, 48 h
  γ-H2AX, phospho-p53 and phospho-ATM in the nucleus: induced accumulation
[5]; A549, BRCA1 wild-type, Western analysis
  Rad51 expression in the nucleus: downregulated
[6]
  NHEJ repair efficiency: little effect
[7]
  lowest dose observed to inhibit growth of tumor xenografts: 50 mg/kg
